Measurements reported in patent US9243237B2, “Method for mass production of factor VII/VIIA” (HANMI SCIENCE CO., LTD, priority 2010, dated 2016).

Key:
Format in all cases: cell-based, Chinese hamster
[1] = test system: CHO/dhfr- cells transformed with pX0GC-FVII; experiment: Selection of human factor VII-expressing cells in MTX selection medium, expression level by enzyme immunoassay; details: MTX concentration of 10 nM or higher
Experimental: The transformed cells of Example <2-1> were seeded at a density of 2×10^4 cells/well to 24-well plates. When the cells were grown to almost full confluence, serum-free CHO-A-SFM (Gibco, Cat. No. 05-5072EF) supplemented with 0.3 mM sodium butyrate (Sigma, Cat. No. B5887) was aliquoted in an amount of 200 μL/well, followed by incubation at 33° C. for 48 hours in a 5% CO2 incubator. The cell culture was transferred to 1.5 mL tubes and centrifuged. Expression levels of human factor VII in the supernatants were measured by taking measurements using an enzyme immunoassay kit (American Diagnostica, Cat. no. 877) according to the manufacturer's instruction. In detail, the cell culture and the standard substance enclosed in the kit were diluted to certain concentrations in physiological saline containing 0.05% Tween-20, and the dilutions were added in an amount of 100 μL to each well of the kit and allowed to react at room temperature for one hour on a plate shaker. […] Five minutes later, 50 μL of a stopping solution was added to each well, followed by measuring absorbance at 450 nm. A standard curve and a function were obtained from the concentrations of the standard solution and the absorbance values obtained. […]

[2] = test system: hFVII-expressing recombinant CHO cell line (HMF708); experiment: Growth of hFVII-expressing cell line in production medium containing sodium butyrate (50 mL Erlenmeyer flasks), hFVII level by enzyme immunoassay; details: for FVII Level (% compared to control %): 30.0°C, day 4, supernatant
Experimental: (§1) The transformed cells of Example <2-1> were seeded at a density of 2×10^4 cells/well to 24-well plates. When the cells were grown to almost full confluence, serum-free CHO-A-SFM (Gibco, Cat. No. 05-5072EF) supplemented with 0.3 mM sodium butyrate (Sigma, Cat. No. B5887) was aliquoted in an amount of 200 μL/well, followed by incubation at 33° C. for 48 hours in a 5% CO2 incubator. The cell culture was transferred to 1.5 mL tubes and centrifuged. Expression levels of human factor VII in the supernatants were measured by taking measurements using an enzyme immunoassay kit (American Diagnostica, Cat. no. 877) according to the manufacturer's instruction. In detail, the cell culture and the standard substance enclosed in the kit were diluted to certain concentrations in physiological saline containing 0.05% Tween-20, and the dilutions were added in an amount of 100 μL to each well of the kit and allowed to react at room temperature for one hour on a plate shaker. After being washed four times with the washing solution enclosed in the kit, each of the wells was incubated at room temperature for one hour with 100 μL of an anti-human factor VII antibody on a plate shake. Each well was again washed four times with the washing solution and then incubated at room temperature for 30 min with 100 μL of an HRP (horseradish peroxidase)-conjugated antibody to the anti-human factor VII antibody. Subsequently, the wells were washed four times, and incubated with 100 μL of a substrate per well at room temperature. Five minutes later, 50 μL of a stopping solution was added to each well, followed by measuring absorbance at 450 nm. A standard curve and a function were obtained from the concentrations of the standard solution and the absorbance values obtained.
(§2) One vial (1×10^7 cells/mL) of the hFVII-expressing cell line which had been selected and assimilated to a suspension culture in Example <2-3> was taken from a liquid nitrogen tank and thawed as soon as possible in a 37° C. bath. After being washed once with a seed culturing medium (EX-CELL CHO medium (Sigma, Cat. No. 63225C) supplemented with 0.3 g/L glutamine), the cell culture was centrifuged at 90×g for 5 min and then inoculated into 50 mL of a seed culture medium in an Erlenmeyer flask (Corning, USA cat#431144). When grown for 1-2 days to a density of 10×10^5 cells/mL in a CO2 incubator (37° C., 5% CO2), the cells were centrifuged again in the same manner and then sub-cultured in 100 mL of a fresh seed culture medium in a new Erlenmeyer flask. The double-volume passage was continued until there was a sufficient number of cells.
The effect of sodium butyrate on the production of hFVII was examined. For this, first, the recombinant CHO cell line which was being cultured was inoculated at a density of 5.0×10^6 cells/mL into 50 mL of a production medium in each of three Erlenmeyer flasks which contained sodium butyrate (Cat. no. B5887, SIGMA, USA) at concentrations of 0.3, 1.0 and 1.5 mM, respectively. The cells grown in the presence of 0.3 mM sodium butyrate were used as a control for comparison. The cells were cultured at 30.0° C. for four days to produce hFVII. On day 4, the cell concentration and cellular activity of the cell cultures were examined. There were no changes in cell density and cellular activity among the cell cultures of different butyrate concentrations.
In addition, after centrifugation of the cell cultures on Day 4, the levels of hFVII in the supernatants were measured using an enzyme immunoassay method as in Example <2-2>.

[3] = test system: hFVII-expressing recombinant CHO cell line (HMF708); experiment: Growth of the cell line in mass-scale production medium (4 L incubation tanks, continuous feed) containing sodium butyrate, hFVII level by enzyme immunoassay; details: for FVII Level (% compared to control %): 4 L, 30.0°C, 11-18 days
Experimental: as §1
as §2, with “assimilated to suspension culture” for “assimilated to a suspension culture”, “90×g for min and” for “90×g for 5 min and”, “of 10×10^5 cell/mL in a” for “of 10×10^5 cells/mL in a”, “continued until a sufficient” for “continued until there was a sufficient”, “number of cells were achieved.” for “number of cells.”
The effect of sodium butyrate on the production of hFVII was examined when the cells were cultured on mass scale. For this, first, the recombinant CHO cell line which was being cultured was inoculated at a density of 1.2×10^7 cells/mL into 4 L of a production medium in each of incubation tanks which contained sodium butyrate (Cat. no. B5887, SIGMA, USA) at concentrations of 0.3, 1.0, 1.5 and 2.0 mM, respectively. The cells grown in the presence of 0.3 mM sodium butyrate were used as a control for comparison. To produce hVII, the cells were cultured at 30.0° C. for 11-18 days with the medium continuously fed at 0.5-1.0 VVD. The culturing was stopped when cellular activity was reduced to less than 80%. […]
In addition, after the cell cultures taken during the cultivation was centrifuged, the levels of hFVII in the supernatants were measured using an enzyme immunoassay method as in Example <2-2>.

[4] = 0.3 mM sodium butyrate (control)
[5] = 1.0 mM sodium butyrate, day 4, control = 0.3 mM
[6] = 1.5 mM sodium butyrate, control = 0.3 mM
[7] = 1.5 mM sodium butyrate, day 4, control = 0.3 mM
[8] = day 4, among cultures with 0.3, 1.0 and 1.5 mM butyrate

Compound	expression level of human factor VII [1]	FVII Level (% compared to control %) [2, 4] [%]	Final Cell Density (% compared to control) ([2]; 0.3 mM sodium butyrate (control), day 4) [%]	FVII Level (% compared to control %) ([2]; 1.0 mM sodium butyrate, control = 0.3 mM) [%]	Cellular Activity (% compared to control) [2, 5] [%]	Final Cell Density (% compared to control) [2, 5] [%]	FVII Level (% compared to control %) [2, 6] [%]	Cellular Activity (% compared to control) [2, 7] [%]	Final Cell Density (% compared to control) [2, 7] [%]	production of hFVII ([2]; 0.3, 1.0 and 1.5 mM sodium butyrate)	activity at 300 µM ([2]; Cricetulus griseus, CHO, 96 h, 0.3 mM sodium butyrate (control), day 4, read-out: Cellular Activity (% compared to control)) [%]	cell density [2, 8]	cellular activity [2, 8]	FVII Level (% compared to control %) [3, 4] [%]	FVII Level (% compared to control %) ([3]; 1 mM sodium butyrate, control = 0.3 mM) [%]	FVII Level (% compared to control %) [3, 6] [%]	FVII Level (% compared to control %) ([3]; 2.0 mM sodium butyrate, control = 0.3 mM) [%]	amounts of FVII produced ([3]; higher concentrations of sodium butyrate, in spite of reduced periods of time of production)
CN(Cc1cnc2nc(N)nc(N)c2n1)c1ccc(C(=O)N[C@@H](CCC(=O)O)C(=O)O)cc1 [MTX, Methotrexate]	not increased	–	–	–	–	–	–	–	–	–	–	–	–	–	–	–	–	–
CCCC(=O)[O-].[Na+] [Sodium Butyrate, sodium butyrate]	–	100.0	100.0	164.9	100.2	106.8	190.1	99.9	108.5	increased in a sodium butyrate dose-dependent manner	100	no changes	no changes	100.0	154.5	157.7	127.6	higher amounts of FVII were produced
